Experimental data as given in PubChem BioAssay (NCI).
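Briefly, cells in 96-well plates were exposed to five compound concentrations for 48 h, and endpoints were estimated by linear interpolation. GI50 marks 50% less growth. Definition used: TGI = concentration required for complete inhibition of growth.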

Legend:
Test in all cases: NCI anticancer screen, dose series, 48 h
NCI-H522 lung = tested on: NCI-H522 lung
OVCAR-3 ovarian = tested on: OVCAR-3 ovarian
HL-60(TB) leukemia = tested on: HL-60(TB) leukemia
SF-268 CNS = tested on: SF-268 CNS
UACC-257 melanoma = tested on: UACC-257 melanoma
OVCAR-4 ovarian = tested on: OVCAR-4 ovarian
SNB-75 CNS = tested on: SNB-75 CNS
NCI-H460 lung = tested on: NCI-H460 lung
SF-539 CNS = tested on: SF-539 CNS
OVCAR-8 ovarian = tested on: OVCAR-8 ovarian
IGROV1 ovarian = tested on: IGROV1 ovarian

Row | SMILES | TGI (NCI-H522 lung) [µM] | TGI (OVCAR-3 ovarian) [µM] | TGI (HL-60(TB) leukemia) [µM] | TGI (SF-268 CNS) [µM] | TGI (UACC-257 melanoma) [µM] | TGI (OVCAR-4 ovarian) [µM] | TGI (SNB-75 CNS) [µM] | TGI (NCI-H460 lung) [µM] | TGI (SF-539 CNS) [µM] | TGI (OVCAR-8 ovarian) [µM] | GI50 (NCI-H522 lung) [µM] | GI50 (OVCAR-4 ovarian) [µM] | GI50 (SF-539 CNS) [µM] | TGI (IGROV1 ovarian) [µM] | GI50 (OVCAR-3 ovarian) [µM] | GI50 (HL-60(TB) leukemia) [µM] | GI50 (UACC-257 melanoma) [µM] | GI50 (SNB-75 CNS) [µM] | GI50 (IGROV1 ovarian) [µM] | GI50 (OVCAR-8 ovarian) [µM]
1 | O=C1CSC(C(N=Nc2ccc(Cl)cc2)c2nc3ccccc3[nH]2)=N1 (stereo not drawn) | 71.1 | > 100 | > 100 | > 100 | > 100 | > 100 | 90.2 | > 100 | 52.9 | > 100 |  |  |  |  |  |  |  |  |  | 
2 | CCc1c(C)c2ccc(OCC(=O)N=Nc3c(O)[nH]c4ccccc34)c(C)c2oc1=O | 1.81 |  |  |  |  | 1.86 |  |  | > 33.3 |  | 0.77 | 0.788 | > 33.3 |  |  |  |  |  |  | 
3 | Cc1c(N=NN(C)C)cc[n+]([O-])c1C | > 100 | > 100 | > 100 | > 100 | > 100 | > 100 | > 100 | > 100 | > 100 | > 100 |  |  |  | > 100 |  |  |  |  |  | 
4 | CC(C)[C@](O)(C(=O)OCC1=CCN2CC[C@@H](O)[C@@H]12)[C@H](C)O | > 375 | > 375 | > 375 | > 375 | > 375 | > 375 | > 375 | > 375 | > 375 | > 375 |  |  |  | > 375 |  |  |  |  |  | 
5 | COC(=O)C1C(O)C(C)C(O)OC1C(C)C(O)C(C)/C=C\C=C(/C)C(=O)Nc1c(C)c(OC(C)=O)c2c(c1O)C(=O)C(C)=C1OCOC(/C(C)=C/C(C)=O)=C12 (stereo not drawn) | 7.74 | 20.5 | 15.3 | 33.1 | 23.7 | 23 | 29.1 | 26.5 | 23.7 | 30.7 |  |  |  | 26.5 |  |  |  |  |  | 
6 | Cn1c(=O)c2nc(NCCO)cnc2n(C)c1=O | 46.4 | 57.9 | 76.9 | > 100 | > 100 | > 100 | 42.4 | > 100 | 88.7 | > 100 |  |  |  | > 100 |  |  |  |  |  | 
7 | O=C(c1ccccc1)c1nn(-c2ccccc2)c2nc3nc(-c4ccccc4)cc(=O)n3nc12 | 58.5 | 49.5 | 42.4 |  | 61.4 | 68.4 | > 100 |  | 38.6 | 84.8 | 20.6 | 22.9 | 19.2 | > 100 | 19.9 | 15.2 | 30.7 | 36.1 | 25.6 | 27.1
8 | Cc1cc2c(C(C)C)c(O)c(O)c(C=Nc3ccccc3)c2c(O)c1-c1c(C)cc2c(C(C)C)c(O)c(O)c(C=Nc3ccccc3)c2c1O | > 100 | > 100 | > 100 | > 100 |  | > 100 | > 100 | > 100 | > 100 | > 100 |  |  |  | > 100 |  |  |  |  |  | 
